Drawing on patent US6720324B2, “Selective melanin concentrating hormone-1 (MCH1) receptor antagonists and uses thereof” (Synaptic Pharmaceutical Corporation, priority 2000, dated 2004), this text covers Ki for one substance.

Read-outs that look alike come from different tables or passages of the source.

The target in one test is T1, human GALR3 (Homo sapiens, UniProt O60755).
T1 construct: expressed in transfected cells
T1 sequence (O60755 1-368): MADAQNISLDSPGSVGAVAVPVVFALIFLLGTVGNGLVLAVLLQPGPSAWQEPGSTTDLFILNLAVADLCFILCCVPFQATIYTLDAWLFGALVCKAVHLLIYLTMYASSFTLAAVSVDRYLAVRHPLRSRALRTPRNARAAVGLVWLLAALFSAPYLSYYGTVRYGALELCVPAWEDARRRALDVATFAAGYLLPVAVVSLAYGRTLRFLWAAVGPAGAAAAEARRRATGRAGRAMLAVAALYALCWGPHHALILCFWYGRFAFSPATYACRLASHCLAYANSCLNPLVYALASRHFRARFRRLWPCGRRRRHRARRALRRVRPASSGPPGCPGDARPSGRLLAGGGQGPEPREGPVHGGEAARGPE
The test can be described thus: Radioligand binding assay, cloned receptor. Particulars: read-out: hGALR3 Ki. The procedure: (§1) For binding assays, pellets of transfected cells are suspended in ice-cold buffer (20 mM Tris.HCl, 5 mM EDTA, pH 7.4) and homogenized by sonication for 7 sec. The cell lysates are centrifuged at 200×g for 5 min at 4° C. The supernatants are then centrifuged at 40,000×g for 20 min at 4° C. The resulting pellets are washed once in the homogenization buffer and suspended in binding buffer (see methods for radioligand binding). Protein concentrations are determined by the method of Bradford (1976) using bovine serum albumin as the standard. Binding assays are usually performed immediately, however it is possible to prepare membranes in batch and store frozen in liquid nitrogen for future use.
(§2) The methods to obtain the cDNA of the human NPY1, NPY5, GALR1, GALR2, and GALR3 and rat 5-HT2C receptors, express said receptors in heterologous systems, and carry out assays to determine binding affinity are described in the following publications and above: human NPY1 (Larhammar et al., 1992), human NPY5 (U.S. Pat. No. 5,602,024, the disclosure of which is hereby incorporated by reference in its entirety into this application), human Gal1 (Habert-Ortoli et al., 1994), human Gal2 (Smith et al., 1997), human Gal3 (Smith et al., 1998), and rat 5-HT2C (Julius et al., 1988).

The next test has as its target T2, human GALR1 (Homo sapiens, UniProt P47211).
T2 construct: expressed in transfected cells
T2 sequence (P47211 1-349): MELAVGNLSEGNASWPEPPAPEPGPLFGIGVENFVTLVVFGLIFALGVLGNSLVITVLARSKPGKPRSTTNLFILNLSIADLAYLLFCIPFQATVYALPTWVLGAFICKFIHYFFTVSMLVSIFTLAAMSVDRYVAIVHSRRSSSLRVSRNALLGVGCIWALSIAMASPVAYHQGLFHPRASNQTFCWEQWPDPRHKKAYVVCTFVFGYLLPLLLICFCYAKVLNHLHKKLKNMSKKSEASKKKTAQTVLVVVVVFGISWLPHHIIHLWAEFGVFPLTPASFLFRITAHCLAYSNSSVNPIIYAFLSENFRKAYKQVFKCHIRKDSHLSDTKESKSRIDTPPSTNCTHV
The test can be described thus: Radioligand binding assay, cloned receptor. To be noted: read-out: hGALR1 Ki. The method, then:
as §1, §2

The target in the next test is T3, rat 5-HT2C receptor (Rattus norvegicus, UniProt P08909).
T3 construct: expressed in transfected cells
T3 sequence (P08909 33-460): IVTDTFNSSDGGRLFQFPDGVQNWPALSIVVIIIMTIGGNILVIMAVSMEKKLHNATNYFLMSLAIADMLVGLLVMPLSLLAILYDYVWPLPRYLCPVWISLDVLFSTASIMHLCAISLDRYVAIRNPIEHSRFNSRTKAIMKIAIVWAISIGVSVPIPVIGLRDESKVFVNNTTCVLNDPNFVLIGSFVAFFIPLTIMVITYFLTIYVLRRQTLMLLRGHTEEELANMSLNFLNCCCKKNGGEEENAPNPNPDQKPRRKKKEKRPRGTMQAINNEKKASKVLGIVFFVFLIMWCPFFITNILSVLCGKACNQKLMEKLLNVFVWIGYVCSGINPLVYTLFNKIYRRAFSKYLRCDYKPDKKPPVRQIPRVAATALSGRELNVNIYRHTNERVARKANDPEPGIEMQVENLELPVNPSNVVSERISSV
The test can be described thus: Radioligand binding assay, cloned receptor. To be noted: read-out: r5HT2C Ki. The procedure: as §1, §2

The target in another test is T4, human NPY1 (Homo sapiens, UniProt P25929).
T4 construct: expressed in transfected cells
T4 sequence (P25929 1-384): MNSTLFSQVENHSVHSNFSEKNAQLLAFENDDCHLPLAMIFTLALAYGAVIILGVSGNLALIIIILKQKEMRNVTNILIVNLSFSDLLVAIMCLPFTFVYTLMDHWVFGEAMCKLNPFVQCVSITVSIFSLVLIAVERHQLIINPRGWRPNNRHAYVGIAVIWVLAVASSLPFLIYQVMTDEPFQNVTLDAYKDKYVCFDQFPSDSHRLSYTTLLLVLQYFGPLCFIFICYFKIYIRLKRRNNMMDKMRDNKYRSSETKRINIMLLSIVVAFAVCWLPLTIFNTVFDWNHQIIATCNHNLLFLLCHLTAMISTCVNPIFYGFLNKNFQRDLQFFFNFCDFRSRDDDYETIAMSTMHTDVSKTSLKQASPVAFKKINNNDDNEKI
The test can be described thus: Radioligand binding assay, cloned receptor. Particulars: read-out: hNPY1 Ki. The method, then:
as §1, §2

The next test concerns the target human MCH1 receptor (Homo sapiens, UniProt Q99705). The test can be described thus: Radioligand competition binding with [3H]Compound 10, membranes of A293 cells. Particulars: Table 3, A293 cell membranes, [3H]Compound 10 as radioligand, read-out: hMCH1 * Ki. The procedure:
as §1
Radioligand binding assays for the MCH1 receptor were carried out using plasmid pEXJ.HR-TL231 (ATCC Accession No. 203197). Plasmid pEXJ.HR-TL231 comprises the regulatory elements necessary for expression of DNA in a mammalian cell operatively linked to DNA encoding the human MCH1 receptor so as to permit expression thereof. Plasmid pEXJ.HR-TL231 was deposited on Sep. 17, 1998, with the American Type Culture Collection (ATCC), 12301 Parklawn Drive, Rockville, Md. 20852, U.S.A. under the provisions of the Budapest Treaty for the International Recognition of the Deposit of Microorganisms for the Purposes of Patent Procedure and was accorded ATCC Accession No. 203197. […]

human MCH1 receptor, sequence (Q99705 whole entry): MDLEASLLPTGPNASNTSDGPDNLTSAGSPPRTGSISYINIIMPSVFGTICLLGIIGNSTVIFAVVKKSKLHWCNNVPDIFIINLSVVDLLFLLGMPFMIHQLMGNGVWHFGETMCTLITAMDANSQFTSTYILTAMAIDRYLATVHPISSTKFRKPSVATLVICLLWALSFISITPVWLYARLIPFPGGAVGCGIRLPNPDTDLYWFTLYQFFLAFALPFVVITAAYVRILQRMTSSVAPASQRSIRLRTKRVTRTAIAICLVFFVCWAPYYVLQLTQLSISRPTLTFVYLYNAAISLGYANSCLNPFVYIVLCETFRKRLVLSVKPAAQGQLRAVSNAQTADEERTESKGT

For the substance “2-(3,4-DIFLUOROPHENYL)4,5-DIHYDROIMIDAZOLE-1-CARBOXYLIC ACID {3-[4-PHENYL-4-(4-BROMO-5-METHYLTHIOPNEN-2-YL)]PROPYL}-AMIDE [Example 19]”, the Ki at human GALR3 (Table 2) is greater than 50 µM; at human GALR3 (Table 3), greater than 50 µM; on human GALR1 (Table 2), greater than 50 µM; at human GALR1 (Table 3), greater than 50 µM; on rat 5-HT2C receptor (Table 2), 11.7 µM; at rat 5-HT2C receptor (Table 3) it was 11.7 µM. In addition, the Ki on human NPY1 (Table 2) was greater than 50 µM; at human NPY1 (Table 3) it was greater than 50 µM; at human MCH1 receptor, 0.003 µM.
